Data as given in BindingDB's records for doi:10.7270/Q2D798VP (Broad Institute, 2009).

Target: T1, Zinc finger protein mex-5 (Caenorhabditis elegans, UniProt Q9XUB2)
T1 sequence (Q9XUB2 whole entry): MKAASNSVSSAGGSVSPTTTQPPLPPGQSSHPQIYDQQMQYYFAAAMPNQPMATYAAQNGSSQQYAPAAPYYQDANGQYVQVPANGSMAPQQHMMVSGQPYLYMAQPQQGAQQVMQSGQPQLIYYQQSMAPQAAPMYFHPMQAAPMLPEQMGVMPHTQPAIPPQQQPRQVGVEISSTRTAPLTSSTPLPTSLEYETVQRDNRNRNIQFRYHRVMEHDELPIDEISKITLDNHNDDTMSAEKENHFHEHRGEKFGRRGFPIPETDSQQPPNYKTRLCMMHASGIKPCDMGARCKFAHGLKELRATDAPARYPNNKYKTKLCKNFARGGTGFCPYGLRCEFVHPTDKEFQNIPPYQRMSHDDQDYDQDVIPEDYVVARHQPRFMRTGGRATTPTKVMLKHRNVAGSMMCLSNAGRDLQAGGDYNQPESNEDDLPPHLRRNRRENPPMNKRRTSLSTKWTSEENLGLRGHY
Assay: MEX-5/TCR-2 RNA interaction inhibitors, dose response, biochemical, C. elegans, fluorescence polarization (AID 1960)

Cc1ccc(C(=O)Cc2nc3ccccc3oc2=O)cc1 [(3Z)-3-[2-(4-methylphenyl)-2-oxidanylidene-ethylidene]-4H-1,4-benzoxazin-2-one] and Cc1ccc2oc(=O)c(CC(=O)CC(C)C)nc2c1 [(3Z)-3-(2-keto-4-methyl-pentylidene)-6-methyl-4H-1,4-benzoxazin-2-one] cannot be ordered by EC50: > 300 µM for the first, > 300 µM for the second.

COc1cc(OC)c(C2C3=C(CC(C)(C)CC3=O)OC(=N)C2C#N)cc1OC (centres undefined) [SMR000054706] and COc1ccc(C2C3=C(CC(C)(C)CC3=O)OC(=N)C2C#N)cc1OC (centres undefined) [2-amino-4-(3,4-dimethoxyphenyl)-5-keto-7,7-dimethyl-6,8-dihydro-4H-chromene-3-carbonitrile] cannot be ordered by EC50: > 300 µM for the first, > 300 µM for the second.

O=C1N=c2ccccc2=C1NNc1ccc(F)cc1 and Cc1ccc2c(c1)=C(NNc1ccccc1C)C(=O)N=2 cannot be ordered by EC50: > 300 µM for the first, > 300 µM for the second.

Going from COc1ccc(N2C(=O)NC(=O)C(=Cc3c[nH]c4ccc(Br)cc34)C2=O)c(OC)c1 [(5E)-5-[(5-bromo-1H-indol-3-yl)methylene]-1-(2,4-dimethoxyphenyl)pyrimidine-2,4,6(1H,3H,5H)-trione] to COc1ccc(N2C(=O)C(=Cc3ccco3)C(=O)NC2=S)cc1 [MLS001204507], the EC50 falls from > 300 µM to 3.9 µM. The second is the more potent here.

Compared with O=c1c2ccccc2nc(N=NCc2ccc(O)cc2)n1O [3-Hydroxy-2-{N'-[1-(4-hydroxy-phenyl)-meth-(E)-ylidene]-hydrazino}-3H-quinazolin-4-one], Nc1c(-c2nc3ccccc3[nH]2)c(O)cn1-c1ccc(CC(=O)O)cc1 [MLS000565528] is lower in EC50: > 300 µM for the first, 1.59 µM for the second.

Compared with O=NCc1cccn1-c1cccc(C(=O)O)c1 [3-[2-(hydroximinomethyl)pyrrol-1-yl]benzoic acid], O=C(Cc1nc2ccccc2n(-c2ccccc2)c1=O)c1ccccc1 [(3Z)-3-phenacylidene-1-phenyl-4H-quinoxalin-2-one] is lower in EC50: > 300 µM for the first, 6.1 µM for the second.

Compared with CCn1nc(C)c(C=C2CCCC3=C2OC(=N)C(C#N)C3c2c(C)nn(CC)c2C)c1C (centres undefined) [(8E)-2-amino-4-(1-ethyl-3,5-dimethyl-1H-pyrazol-4-yl)-8-[(1-ethyl-3,5-dimethyl-1H-pyrazol-4-yl)methylene]-5,6,7,8-tetrahydro-4H-chromene-3-carbonitrile], COc1cc(C2C3=C(CCCC3=O)OC(=N)C2C#N)cc2c1OCO2 (centres undefined) is higher in EC50: 51.8 µM for the first, > 300 µM for the second.

Compared with CSc1ccc(C2C(C(=O)c3ccco3)C(=O)C(=O)N2c2nnc(SC)s2)cc1 (centres undefined) [3-(furan-2-carbonyl)-4-hydroxy-2-(4-methylsulfanylphenyl)-1-(5-methylsulfanyl-1,3,4-thiadiazol-2-yl)-2H-pyrrol-5-one], COc1ccc(C2C(C(=O)c3ccco3)C(=O)C(=O)N2c2nnc(C)s2)cc1OC (centres undefined) [2-(3,4-dimethoxyphenyl)-3-(furan-2-carbonyl)-4-hydroxy-1-(5-methyl-1,3,4-thiadiazol-2-yl)-2H-pyrrol-5-one] is 18-fold higher in EC50: 16.4 µM for the first, 297 µM for the second.

COc1ccc(N=Cc2cc3c(cc2O)OC(=N)C(C#N)C3c2ccccc2)cc1 (centres undefined) [(6E)-2-amino-6-[(4-methoxyanilino)methylidene]-7-oxo-4-phenyl-4H-1-benzopyran-3-carbonitrile] and N#CC1C(=N)Oc2cc(O)c(Cl)cc2C1c1ccccc1F (centres undefined) [2-Amino-6-chloro-4-(2-fluoro-phenyl)-7-hydroxy-4H-chromene-3-carbonitrile] cannot be ordered by EC50: > 300 µM for the first, > 300 µM for the second.

CCCN1CCC2=C(C#N)C(=N)C(C#N)(C#N)C(c3cc(OC)ccc3OC)C2C1 (centres undefined) [6-Amino-8-(2,5-dimethoxy-phenyl)-2-propyl-2,3,8,8a-tetrahydro-1H-isoquinoline-5,7,7-tricarbonitrile] and N#CC1=C2CCCCC2C(c2cccnc2)C(C#N)(C#N)C1=N (centres undefined) [2-amino-4-(3-pyridinyl)-4a,5,6,7-tetrahydro-4H-naphthalene-1,3,3-tricarbonitrile] are within 1.5-fold of each other in EC50: 25.5 µM for the first, 17.5 µM for the second.

Going from CCC(=CC=C[C@@H]1C=C[C@@H]2CCC[C@H]2[C@@H]1C(=O)c1ccc[nH]1)[C@@H]1O[C@@H]([C@@H](C)C(=O)O)CC[C@@H]1C [2-(6-{1-ethyl-4-[4-(1H-pyrrol-2-ylcarbonyl)-2,3,3a,4,5,7a-hexahydro-1H-inden-5-yl]-1,3-butadienyl}-5-methyltetrahydro-2H-pyran-2-yl)propanoate] to O=C(/C=C/c1ccco1)NCC(=O)NNC1=c2ccccc2=NC1=O [MLS001075666], the EC50 rises from 1.16 µM to 5.49 µM (4.7-fold).

CCN(CC)c1ccc(NC=C2C(=O)NC(=O)N(Cc3ccccc3)C2=O)cc1 [(5E)-1-benzyl-5-[[4-(diethylamino)anilino]methylene]barbituric acid] and O=C1NC(=O)N(Cc2ccccc2)C(=O)C1=CNc1ccc(CN2CCOCC2)cc1 [(5E)-1-benzyl-5-[[4-(morpholin-4-ylmethyl)anilino]methylidene]-1,3-diazinane-2,4,6-trione] cannot be ordered by EC50: > 300 µM for the first, > 300 µM for the second.

O=C1NC(=O)N(CCc2ccc(F)cc2)C(=O)C1=CNNC(=O)c1ccccc1 [N'-[(E)-[1-[2-(4-fluorophenyl)ethyl]-2,4,6-trioxo-1,3-diazinan-5-ylidene]methyl]benzohydrazide] and O=C1NC(=O)N(CCc2ccc(F)cc2)C(=O)C1=CNCCCn1ccnc1 [(5E)-1-[2-(4-fluorophenyl)ethyl]-5-[(3-imidazol-1-ylpropylamino)methylene]barbituric acid] cannot be ordered by EC50: > 300 µM for the first, > 300 µM for the second.

Going from Cc1ncc(C=O)c(CNNC(=O)c2cc(Br)ccc2O)c1O [5-bromanyl-N'-[(Z)-[5-(hydroxymethyl)-2-methyl-3-oxidanylidene-pyridin-4-ylidene]methyl]-2-oxidanyl-benzohydrazide] to Cc1cc(-c2ccccc2)nc(N=NCc2ccc(O)cc2O)n1 [SMR000513422], the EC50 rises from 5.72 µM to 54 µM (9.4-fold).

Cc1c(NC=C2C(=O)NC(=O)N(Cc3ccco3)C2=O)c(=O)n(-c2ccccc2)n1C [(5E)-1-(2-furfuryl)-5-[[(3-keto-1,5-dimethyl-2-phenyl-3-pyrazolin-4-yl)amino]methylene]barbituric acid] and COc1ccc(OC)c(NC=C2C(=O)NC(=S)N(Cc3ccccc3)C2=O)c1 cannot be ordered by EC50: > 300 µM for the first, > 300 µM for the second.

First: O=[N+]([O-])c1cc/c(=N\c2ccccc2O)c2no[nH]c1-2 [MLS001206694]
Second: O=C(Cc1nc2cc([N+](=O)[O-])ccc2[nH]c1=O)c1ccccc1 [6-Nitro-3-(2-oxo-2-phenyl-ethylidene)-3,4-dihydro-1H-quinoxalin-2-one]
The EC50 of the first is lower: 28.2 µM for the first, > 300 µM for the second. The first is the more potent here.

First: COc1cc(C2NC(=S)N=C(C)C2C(=O)OC(C)C)ccc1OC(C)C (centres undefined) [4-(3-methoxy-4-propan-2-yloxyphenyl)-6-methyl-2-sulfanylidene-3,4-dihydro-1H-pyrimidine-5-carboxylic acid propan-2-yl ester]
Second: COc1ccc(C(=O)CC=Nc2ccc([N+](=O)[O-])cc2C)cc1OC [(E)-1-(3,4-dimethoxyphenyl)-3-(2-methyl-4-nitro-anilino)prop-2-en-1-one]
The EC50 of the first is higher: > 300 µM for the first, 150 µM for the second.

COc1cc(C2C3=C(CC(C)(C)CC3=O)OC(=N)C2C#N)cc2c1OCO2 (centres undefined) and COc1cccc(C2C3=C(CCCC3=O)OC(=N)C2C#N)c1OC(=O)c1ccco1 (centres undefined) [2-(2-amino-3-cyano-5-oxo-5,6,7,8-tetrahydro-4H-chromen-4-yl)-6-methoxyphenyl 2-furoate] cannot be ordered by EC50: > 300 µM for the first, > 300 µM for the second.

Compared with O=C(CC=Nc1ccc([N+](=O)[O-])cc1)c1ccc(Br)cc1 [(E)-1-(4-bromophenyl)-3-(4-nitroanilino)-2-propen-1-one], O=C(N/N=C/C1C=C(Cl)C=C([N+](=O)[O-])C1=O)c1ccc2c(c1)OCO2 (centres undefined) [N'-[(E)-(3-chloranyl-5-nitro-6-oxidanylidene-cyclohexa-2,4-dien-1-ylidene)methyl]-1,3-benzodioxole-5-carbohydrazide] is lower in EC50: > 300 µM for the first, 241 µM for the second.

Compared with C/N=C1/S/C(=C\c2ccc(N3CCCC3)c(F)c2)C(=O)N1C [(5Z)-5-(3-fluoro-4-pyrrolidino-benzylidene)-3-methyl-2-methylimino-thiazolidin-4-one], Cc1ccc(NC=C2SC(=O)c3ccccc32)c(C)c1 [(3Z)-3-[(2,4-dimethylanilino)methylene]isobenzothiophen-1-one] is higher in EC50: 8.89 µM for the first, > 300 µM for the second.

First: N#CC1=C2CCOCC2C(c2cccnc2)C(C#N)(C#N)C1=N (centres undefined) [6-Amino-8-pyridin-3-yl-8,8a-dihydro-1H,3H-isochromene-5,7,7-tricarbonitrile]
Second: [H]/N=C1/OC23CCCCC2C(C#N)(C#N)C1(C#N)C(c1ccc(OC)cc1)O3 (centres undefined) [MLS000554241]
The EC50 of the first is higher: > 300 µM for the first, 11.2 µM for the second.

Going from O=C1N=C(O)C(C2=c3cc([N+](=O)[O-])ccc3=NC2=O)S1 (centres undefined) [MLS001163276] to CC1(C)CC(=O)C2Sc3ccccc3N=C2C1 (centres undefined) [2,2-Dimethyl-2,3-dihydro-1H,10H-phenothiazin-4-one], the EC50 rises from 21.5 µM to 59.3 µM (2.8-fold). The first is the more potent here.

Going from N#CCC(=N)C(C#N)C#N [1,1,3-tricyano-2-amino-1-propene] to N#CC1C(=N)Oc2ccc3ccc(O)cc3c2C1c1ccsc1 (centres undefined) [3-amino-9-hydroxy-1-(3-thienyl)-1H-benzo[f]chromene-2-carbonitrile], the EC50 falls from 169 µM to 11 µM (15-fold). The second is the more potent here.

Going from CCOc1cc(C=C2C(=N)N3N=C(S(C)(=O)=O)SC3=NC2=O)ccc1OCCOc1cccc(OC)c1 [(6E)-6-[[3-ethoxy-4-[2-(3-methoxyphenoxy)ethoxy]phenyl]methylidene]-5-imino-2-methylsulfonyl-[1,3,4]thiadiazolo[3,2-a]pyrimidin-7-one] to COC(=O)c1[nH]c2cc(OC)c(OC)cc2c1CN=Nc1ccccc1 [methyl (3Z)-5,6-dimethoxy-3-[(2-phenylhydrazinyl)methylidene]indole-2-carboxylate], the EC50 falls from 221 µM to 20.3 µM (11-fold).

Brc1ccc(C2=Nc3ncnn3C(c3ccco3)C2)cc1 (centres undefined) showed an EC50 of 18.1 µM.
